Measurements as given in patent US8609690B2, “Aryl- and heteroarylcarbonyl derivatives of substituted nortropanes, medicaments containing such compounds and their use” (Boehringer Ingelheim International GmbH, priority 2008, dated 2013).

Target: T1, 11β-HSD 1 (Homo sapiens, UniProt P28845)
T1 construct: detecting cortisol generated from cortisterone by human liver microsomes; from tissue; host or cells: human liver microsomes
Test: In vitro inhibition of 11β-HSD 1, HTRF detection of cortisol generated by human liver microsomes
Type: biochemical
Conditions: 1 μM test compound, 100% indicates no inhibition, zero or below zero indicates complete inhibition (relative to carbenoxolone)
Method: Briefly, compounds were incubated for 1 hour at 37° C. in Tris buffer (20 mM tris, 5 mM EDTA, pH 6.0) containing NADPH (200 μM) and cortisone (80 nM). Cortisol generated in the reaction is then detected with a competitive immunoassay, involving two HTRF conjugates: cortisol linked to XL665 and anti-cortisol antibody labeled with Europium cryptate. The incubation period for detection reaction was typically 2 hours. The amount of cortisol is determined by reading the time-resolved fluorescence of the wells (Ex 320/75 nm; Em 615/8.5 nm and 665/7.5 nm). The ratio of the two emission signals is then calculated (Em665*10000/Em615). […] Each assay also contained a calibration curve with cortisol to transform the fluorescent data into cortisol concentrations. Percent inhibition of each compound was determined relative to the carbenoxolone signal. In Table 2 the 11β-HSD 1 inhibitory activities at 1 μM concentration of test compound, determined as described above, of the compounds listed in Table 3 are compiled, wherein 100% indicates no inhibition and a value of zero or below zero indicates complete inhibition.

T1 sequence (P28845 whole entry): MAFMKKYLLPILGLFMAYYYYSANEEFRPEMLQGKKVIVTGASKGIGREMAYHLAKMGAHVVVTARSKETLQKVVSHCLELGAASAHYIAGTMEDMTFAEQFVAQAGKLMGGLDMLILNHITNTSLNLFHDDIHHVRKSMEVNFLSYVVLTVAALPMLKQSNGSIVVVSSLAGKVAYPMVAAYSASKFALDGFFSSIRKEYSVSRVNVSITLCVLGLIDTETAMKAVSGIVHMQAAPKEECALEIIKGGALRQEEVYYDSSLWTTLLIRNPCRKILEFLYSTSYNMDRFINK

SMILES | Inhibitory activity on 11β-HSD 1, % CTL [% CTL]
Cc1cc(C(F)F)n2nc(C(=O)N3[C@@H]4CC[C@H]3C[C@@H](c3ccc(F)cc3)C4)nc2n1 [Example 162, endo-(7-Difluoromethyl-5-methyl-[1,2,4]triazolo[1,5-a]pyrimidin-2-yl)-[3-(4-fluoro-phenyl)-8-aza-bicyclo[3.2.1]oct-8-yl]-methanone] | 96
COc1ccc(C(=O)N2[C@@H]3CC[C@H]2C[C@@H](c2ccc(F)cc2)C3)cc1OC [Example 118, endo-(3,4-Dimethoxy-phenyl)-[3-(4-fluoro-phenyl)-8-aza-bicyclo[3.2.1]oct-8-yl]-methanone] | −28
O=C(c1ccc2c(c1)OCCO2)N1C2CCC1CC(c1ccc(F)c(Cl)c1)C2 (centres unmarked) [Example 148, [3-(3-Chloro-4-fluoro-phenyl)-8-aza-bicyclo[3.2.1]oct-8-yl]-(2,3-dihydro-benzo[1,4]dioxin-6-yl)-methanone] | −48
CC(=O)Nc1cccc(C(=O)N2[C@@H]3CC[C@H]2C[C@@H](c2ccc(F)cc2)C3)c1 [Example 64, endo-N-{3-[3-(4-Fluoro-phenyl)-8-aza-bicyclo[3.2.1]octane-8-carbonyl]-phenyl}-acetamide] | 99
COc1cc(C(=O)N2[C@@H]3CC[C@H]2C[C@@H](c2ccc(F)cc2)C3)cc(OC)c1O [Example 181, endo-[3-(4-Fluoro-phenyl)-8-aza-bicyclo[3.2.1]oct-8-yl]-(4-hydroxy-3,5-dimethoxy-phenyl)-methanone] | 18
Cc1ccc(C(=O)N2[C@@H]3CC[C@H]2C[C@@H](c2ccc(F)cc2)C3)cc1 [Example 101, endo-[3-(4-Fluoro-phenyl)-8-aza-bicyclo[3.2.1]oct-8-yl]-p-tolyl-methanone] | 4
O=C(c1cccs1)N1[C@@H]2CC[C@H]1C[C@@H](c1ccc(F)cc1)C2 [Example 7, endo-[3-(4-Fluoro-phenyl)-8-aza-bicyclo[3.2.1]oct-8-yl]-thiophen-2-yl-methanone] | 68
Cc1ccc([C@H]2C[C@H]3CC[C@@H](C2)N3C(=O)c2ccc(OC3CSC3)cc2)cc1 [Example 32, endo-[4-(Thietan-3-yloxy)-phenyl]-(3-p-tolyl-8-aza-bicyclo[3.2.1]oct-8-yl)-methanone] | 94
O=C(c1cccc(CO)c1)N1[C@@H]2CC[C@H]1C[C@@H](c1ccc(F)cc1)C2 [Example 82, endo-[3-(4-Fluoro-phenyl)-8-aza-bicyclo[3.2.1]oct-8-yl]-(3-hydroxymethyl-phenyl)-methanone] | 5
O=C(c1ccc2[nH]ncc2c1)N1[C@@H]2CC[C@H]1C[C@@H](c1ccc(F)cc1)C2 [Example 180, endo-[3-(4-Fluoro-phenyl)-8-aza-bicyclo[3.2.1]oct-8-yl]-(1H-indazol-5-yl)-methanone] | −41
O=C(c1ccc2cc[nH]c2c1)N1[C@@H]2CC[C@H]1C[C@@H](c1ccc(F)cc1)C2 [Example 62, endo-[3-(4-Fluoro-phenyl)-8-aza-bicyclo[3.2.1]oct-8-yl]-(1H-indol-6-yl)-methanone] | −47
C[Si](C)(C)c1ccc([C@H]2C[C@H]3CC[C@@H](C2)N3C(=O)c2ccc3c(c2)OCCO3)cc1 [Example 143, endo-(2,3-Dihydro-benzo[1,4]dioxin-6-yl)-[3-(4-trimethyl-silyl-phenyl)-8-aza-bicyclo[3.2.1]oct-8-yl]-methanone] | 58
O=C1CCCN1c1cccc(C(=O)N2[C@@H]3CC[C@H]2C[C@@H](c2ccc(F)cc2)C3)c1 [Example 75, endo-1-{3-[3-(4-Fluoro-phenyl)-8-aza-bicyclo[3.2.1]octane-8-carbonyl]-phenyl}-pyrrolidin-2-one] | 92
COc1ccc(C(=O)N2[C@@H]3CC[C@H]2C[C@@H](c2ccc(F)cc2)C3)cc1Cl [Example 165, endo-(3-Chloro-4-methoxy-phenyl)-[3-(4-fluoro-phenyl)-8-aza-bicyclo[3.2.1]oct-8-yl]-methanone] | 2
Cc1nc2ccc(C(=O)N3[C@@H]4CC[C@H]3C[C@@H](c3ccc(F)cc3)C4)cc2[nH]1 [Example 74, endo-[3-(4-Fluoro-phenyl)-8-aza-bicyclo[3.2.1]oct-8-yl]-(2-methyl-3H-benzoimidazol-5-yl)-methanone] | 69
O=C(c1ccc(F)c(F)c1)N1[C@@H]2CC[C@H]1C[C@@H](c1ccc(F)cc1)C2 [Example 77, endo-(3,4-Difluoro-phenyl)-[3-(4-fluoro-phenyl)-8-aza-bicyclo[3.2.1]oct-8-yl]methanone] | 47

SMILES | Inhibitory activity on 11β-HSD 1, % CTL [% CTL]
CNc1cccc(C(=O)N2[C@@H]3CC[C@H]2C[C@@H](c2ccc(F)cc2)C3)c1 [Example 83, endo-[3-(4-Fluoro-phenyl)-8-aza-bicyclo[3.2.1]oct-8-yl]-(3-methylamino-phenyl)-methanone] | −30
O=C(c1ccc2c(c1)OCCO2)N1C2CCC1CC(c1ccccc1F)C2 (centres unmarked) [Example 145, (2,3-Dihydro-benzo[1,4]dioxin-6-yl)-[3-(2-fluoro-phenyl)-8-aza-bicyclo[3.2.1]oct-8-yl]-methanone] | −37
O=C(c1cnn2cccnc12)N1[C@@H]2CC[C@H]1C[C@@H](c1ccc(F)cc1)C2 [Example 35, endo-[3-(4-Fluoro-phenyl)-8-aza-bicyclo[3.2.1]oct-8-yl]-pyrazolo[1,5-a]pyrimidin-3-yl-methanone] | 62
O=C(c1ccco1)N1[C@@H]2CC[C@H]1C[C@@H](c1ccc(F)cc1)C2 [Example 34, endo-[3-(4-Fluoro-phenyl)-8-aza-bicyclo[3.2.1]oct-8-yl]-furan-2-yl-methanone] | 75
N#Cc1ccccc1C(=O)N1[C@@H]2CC[C@H]1C[C@@H](c1ccc(F)cc1)C2 [Example 63, endo-2-[3-(4-Fluoro-phenyl)-8-aza-bicyclo[3.2.1]octane-8-carbonyl]-benzonitrile] | 91
Cc1ccc([C@H]2C[C@H]3CC[C@@H](C2)N3C(=O)c2cscn2)cc1 [Example 13, endo-Thiazol-4-yl-(3-p-tolyl-8-aza-bicyclo[3.2.1]oct-8-yl)-methanone] | 62
COc1cc(C(=O)N2[C@@H]3CC[C@H]2C[C@@H](c2ccc(F)cc2)C3)ccc1O [Example 171, endo-[3-(4-Fluoro-phenyl)-8-aza-bicyclo[3.2.1]oct-8-yl]-(4-hydroxy-3-methoxy-phenyl)-methanone] | −26
O=C(c1ccc(O)c(C(F)(F)F)c1)N1[C@@H]2CC[C@H]1C[C@@H](c1ccc(F)cc1)C2 [Example 174, endo-[3-(4-Fluoro-phenyl)-8-aza-bicyclo[3.2.1]oct-8-yl]-(4-hydroxy-3-trifluoromethyl-phenyl)-methanone] | −40
CC(=O)c1cccc(C(=O)N2[C@@H]3CC[C@H]2C[C@@H](c2ccc(F)cc2)C3)c1 [Example 124, endo-1-{3-[3-(4-Fluoro-phenyl)-8-aza-bicyclo[3.2.1]octane-8-carbonyl]-phenyl}-ethanone] | 59
Cc1cc(C(=O)N2[C@@H]3CC[C@H]2C[C@@H](c2ccc(F)cc2)C3)ccc1O [Example 166, endo-[3-(4-Fluoro-phenyl)-8-aza-bicyclo[3.2.1]oct-8-yl]-(4-hydroxy-3-methyl-phenyl)-methanone] | −33
Cc1ccc([C@H]2C[C@H]3CC[C@@H](C2)N3C(=O)c2ccco2)cc1 [Example 17, endo-Furan-2-yl-(3-p-tolyl-8-aza-bicyclo[3.2.1]oct-8-yl)-methanone] | 93
COc1ccccc1C(=O)N1[C@@H]2CC[C@H]1C[C@@H](c1ccc(F)cc1)C2 [Example 110, endo-[3-(4-Fluoro-phenyl)-8-aza-bicyclo[3.2.1]oct-8-yl]-(2-methoxy-phenyl)-methanone] | 87
O=C(c1ccccc1Cl)N1[C@@H]2CC[C@H]1C[C@@H](c1ccc(F)cc1)C2 [Example 111, endo-(2-Chloro-phenyl)-[3-(4-fluoro-phenyl)-8-aza-bicyclo[3.2.1]oct-8-yl]-methanone] | 61
COc1cc(OC)cc(C(=O)N2[C@@H]3CC[C@H]2C[C@@H](c2ccc(F)cc2)C3)c1 [Example 123, endo-(3,5-Dimethoxy-phenyl)-[3-(4-fluoro-phenyl)-8-aza-bicyclo[3.2.1]oct-8-yl]-methanone] | −17
O=C(c1ccc2nccnc2c1)N1[C@@H]2CC[C@H]1C[C@@H](c1ccc(F)cc1)C2 [Example 70, endo-[3-(4-Fluoro-phenyl)-8-aza-bicyclo[3.2.1]oct-8-yl]-quinoxalin-6-yl-methanone] | 19
O=C1Cc2ccc(C(=O)N3[C@@H]4CC[C@H]3C[C@@H](c3ccc(F)cc3)C4)cc2N1 [Example 46, endo-6-[3-(4-Fluoro-phenyl)-8-aza-bicyclo[3.2.1]octane-8-carbonyl]-1,3-dihydro-indol-2-one] | 97
